Source: patent US5977373A, “Thiadiazolyl and oxadiazolyl phenyl oxazolidinone antibacterial agents” (Pharmacia & Upjohn Company, priority 1998, dated 1999)
Converted amounts (≈) assume the structure as drawn.

Assays:
Assay type in all cases: cell-based
[1] = system: HI 30063; experiment: MIC for a gram negative bacterial strain (Table 2); settings: gram negative bacterial strain HI 30063
[2] = system: S. Aureus UC ® 9213; experiment: In vitro minimum inhibitory concentration (MIC) by agar dilution, gram-positive bacteria (Table 1); settings: Staphylococcus aureus, UC9213
Excerpt: (§1) The oxazolidinone antibacterial agents of this invention have useful activity against a variety of microorganisms. The in vitro activity of compounds of this invention can be assessed by standard testing procedures such as the determination of minimum inhibitory concentration (MIC) by agar dilution as described in "Methods for Dilution Antimicrobial Susceptibility Tests for Bacteria That Grow Aerobically" (MFT) published January 1983 by the National Committee for Clinical Laboratory Standards, 771 East Lancaster Avenue, Villanova, Pa. 19084, USA. The activity of selected compounds of this invention against Staphylococcus aureus and Streptococcus pneumoniae are shown in Table 1.

[3] = system: S. pneumoniae UC ® 9912; experiment: as above; settings: Streptococcus pneumoniae, UC9912
Excerpt: as §1

Row | SMILES | MIC [1] | MIC [2] | MIC [3]
1 | CC(=O)NC[C@H]1CN(c2ccc(-c3nnc(CCC#N)s3)c(F)c2)C(=O)O1 [Example 20, (S)-N-[[3-[4-[5-(2-Cyanoethyl)-1,3,4-thiadiazol-2-yl]-3-fluorophenyl]-2-oxo-5-oxazolidinyl]methyl]acetamide] | 2 µg/mL (≈ 5.14 µM) | 0.5 µg/mL (≈ 1.28 µM) | < 0.125 µg/mL
2 | CC(=O)NC[C@H]1CN(c2ccc(-c3nnc(C)s3)c(F)c2)C(=O)O1 [Example 3, (S)-N-[[3-[3-Fluoro-4-(5-methyl-1,3,4-thiadiazol-2-yl)phenyl]-2-oxo-5-oxazolidinyl]methyl]acetamide] | 2 µg/mL (≈ 5.71 µM) | 1 µg/mL (≈ 2.85 µM) | < 0.125 µg/mL
3 | CC(=O)NC[C@H]1CN(c2ccc(-c3nnc(CC#N)s3)c(F)c2)C(=O)O1 [Example 13, (S)-N-[[3-[4-[5-(Cyanomethyl)-1,3,4-thiadiazol-2-yl]-3-fluorophenyl]-2-oxo-5-oxazolidinyl]methyl]acetamide] | 4 µg/mL (≈ 10.7 µM) | 2 µg/mL (≈ 5.33 µM) | 0.25 µg/mL (≈ 0.666 µM)
4 | CC(=O)NC[C@H]1CN(c2ccc(-c3nnc(CO)s3)c(F)c2)C(=O)O1 [Example 11, (S)-N-[[3-[3-Fluoro-4-(5-hydroxymethyl-1,3,4-thiadiazol-2-yl)phenyl]-2-oxo-5-oxazolidinyl]methyl]acetamide] | 4 µg/mL (≈ 10.9 µM) | 1 µg/mL (≈ 2.73 µM) | < 0.125 µg/mL
5 | CC(=O)NC[C@H]1CN(c2ccc(-c3nncs3)c(F)c2)C(=O)O1 [Example 9, (S)-N-[[3-[3-Fluoro-4-(1,3,4-thiadiazol-2-yl)phenyl]-2-oxo-5-oxazolidinyl]methyl]acetamide] | 4 µg/mL (≈ 11.9 µM) | 1 µg/mL (≈ 2.97 µM) | 0.25 µg/mL (≈ 0.743 µM)
6 | CC(=O)CCc1nnc(-c2ccc(N3C[C@H](CNC(C)=O)OC3=O)cc2F)s1 [Example 16, (S)-N-[[3-[3-Fluoro-4-[5-(3-oxobutyl)-1,3,4-thiadiazol-2-yl]phenyl]-2-oxo-5-oxazolidinyl]methyl]acetamide] | 4 µg/mL (≈ 9.84 µM) | 1 µg/mL (≈ 2.46 µM) | < 0.125 µg/mL
7 | CC(=O)NC[C@H]1CN(c2ccc(-c3n[nH]c(=O)s3)c(F)c2)C(=O)O1 [Example 29, (S)-N-[[3-[4-(4,5-Dihydro-5-oxo-1,3,4-thiadiazol-2-yl)-3-fluorophenyl]-2-oxo-5-oxazolidinyl]methyl]acetamide] | 4 µg/mL (≈ 11.4 µM) | 1 µg/mL (≈ 2.84 µM) | 0.25 µg/mL (≈ 0.71 µM)
8 | CC(=O)NC[C@H]1CN(c2ccc(-c3nnc(CC(N)=O)s3)c(F)c2)C(=O)O1 [Example 14, (S)-5-[4-[5-[(Acetylamino)methyl]-2-oxo-3-oxazolidinyl]-2-fluorophenyl]-1,3,4-thiadiazole-2-acetamide] | 4 µg/mL (≈ 10.2 µM) | 4 µg/mL (≈ 10.2 µM) | < 0.125 µg/mL

Next, values leading:

Row | MIC [1] | MIC [2] | MIC [3] | SMILES
9 | 4 µg/mL (≈ 9.04 µM) | 4 µg/mL (≈ 9.04 µM) | < 0.5 µg/mL | CC(=O)NC[C@H]1CN(c2ccc(-c3nnc(CCS(C)(=O)=O)s3)c(F)c2)C(=O)O1 [Example 70, (S)-N-[[3-[3-Fluoro-4-[5-[2-(methylsulfonyl)ethyl]-1,3,4-thiadiazol-2-yl]phenyl]-2-oxo-5-oxazolidinyl]methyl]acetamide]
10 | 4 µg/mL (≈ 9.49 µM) | 2 µg/mL (≈ 4.75 µM) | < 0.125 µg/mL | CC(=O)NC[C@H]1CN(c2ccc(-c3nnc(CCC(C)=NO)s3)c(F)c2)C(=O)O1 [Example 63, (S)-N-[[3-[3-Fluoro-4-[5-[3-(hydroxyimino)butyl]-1,3,4-thiadiazol-2-yl]phenyl]-2-oxo-5-oxazolidinyl]methyl]acetamide]
11 | 4 µg/mL | 2 µg/mL | < 0.5 µg/mL | CC(=O)OCC(=O)NCc1nnc(-c2ccc(N3C[C@H](CNC(C)=S)OC3=O)cc2F)s1 [Example 78, 2-({[5-(4-{(5S)-5-[(ethanethioylamino)methyl]-2-oxo-1,3-oxazolidin-3-yl}-2-fluorophenyl)-1,3,4-thiadiazol-2-yl]methyl}amino)-2-oxoethyl acetate]
12 | 4 µg/mL (≈ 11 µM) | 1 µg/mL (≈ 2.74 µM) | < 0.125 µg/mL | CCC(=O)NC[C@H]1CN(c2ccc(-c3nnc(C)s3)c(F)c2)C(=O)O1 [Example 32, (S)-N-[[3-[3-Fluoro-4-(5-methyl-1,3,4-thiadiazol-2-yl)phenyl]-2-oxo-5-oxazolidinyl]methyl]propanamide]
13 | 1 µg/mL (≈ 2.73 µM) | 0.25 µg/mL (≈ 0.682 µM) | < 0.125 µg/mL | CCC(=S)NC[C@H]1CN(c2ccc(-c3nncs3)c(F)c2)C(=O)O1 [Example 76, (S)-N-[[3-[3-Fluoro-4-(1,3,4-thiadiazol-2-yl)phenyl]-2-oxo-5-oxazolidinyl]methyl]propanethioamide]
14 | 4 µg/mL (≈ 10.5 µM) | 8 µg/mL (≈ 21.1 µM) | < 0.125 µg/mL | CC(=O)NC[C@H]1CN(c2ccc(-c3nnc([C@H](C)N)s3)c(F)c2)C(=O)O1 [Example 55, [S-(R*,R*)]-N-[[3-[4-[5-(1-Aminoethyl)-1,3,4-thiadiazol-2-yl]-3-fluorophenyl]-2-oxo-5-oxazolidinyl]methyl]acetamide]
15 | 4 µg/mL (≈ 9.45 µM) | 2 µg/mL (≈ 4.72 µM) | 0.25 µg/mL (≈ 0.59 µM) | CC(=O)NC[C@H]1CN(c2ccc(-c3nnc(CCC[N+](=O)[O-])s3)c(F)c2)C(=O)O1 [Example 54, (S)-N-[[3-[3-Fluoro-4-[5-(3-nitropropyl)-1,3,4-thiadiazol-2-yl]phenyl]-2-oxo-5-oxazolidinyl]methyl]acetamide]
16 | < 0.5 µg/mL | < 0.5 µg/mL | < 0.5 µg/mL | CC(=S)NC[C@H]1CN(c2ccc(-c3nnc(CN)s3)c(F)c2)C(=O)O1 [Example 77, N-[((5S)-3-{4-[5-(aminomethyl)-1,3,4-thiadiazol-2-yl]-3-fluorophenyl}-2-oxo-1,3-oxazolidin-5-yl)methyl]ethanethioamide]
17 | 4 µg/mL (≈ 10.1 µM) | 2 µg/mL (≈ 5.07 µM) | 0.25 µg/mL (≈ 0.634 µM) | CC(=O)NC[C@H]1CN(c2ccc(-c3nnc(CCCO)s3)c(F)c2)C(=O)O1 [Example 50, (S)-N-[[3-[3-Fluoro-4-[5-(3-hydroxypropyl)-1,3,4-thiadiazol-2-yl]phenyl]-2-oxo-5-oxazolidinyl]methyl]acetamide]
